We go through one molecule from patent US12569468B2, “Use of palovarotene in treatment against HBV virus” (YANG SHENG TANG COMPANY, LTD., priority 2020, dated 2026).

The test system of assay [1] is HBV. Briefly: HBcAg immunofluorescence detection in infected HepG2-hNTCP 2B1. Type of assay: cell-based, hepatitis B virus. The conditions noted are these: HepG2-hNTCP 2B1 cells after infection; 5 μM, day 6 to day 12. How it is done:
Southern blot experiment was carried out on a 10 cm^2 culture plate. About 5×10^6 HepG2-hNTCP 2B1 cells were plated in each 10 cm^2 culture plate, and medium B was added. After the cells adhered, medium A was used for replacement to perform the induction with Doxycycline during the whole experiment. HBV infection was performed 4 days after the induction with Doxycycline, and the amount of HBV for infection was 1000 MOI. Before infection, HBV was diluted in medium C to obtain HBV solution, and the infection volume was 5 mL. During infection, the cell supernatant was first removed by suction, the HBV solution was added to the cells, the cells were incubated for 24 hours, then the supernatant was collected as the sample of Day 0. Then the cells were washed three times with PBS, and fresh medium A was used for replacement. After that, the supernatant was collected every two days for detection, fresh medium A was used for replacement. […]
The HBcAg immunofluorescence staining involved in this experiment was performed directly on adherent cells. […] Photographing: Photographing was performed with a high-content confocal microscope (PerkinElmer, Operetta CLS), and the mean fluorescence intensity of green fluorescence was analyzed.

Assay [2] concerns HBV. The assay is described as follows: Therapeutic effect in high copy replication model HepAD38. It counts as cell-based, hepatitis B virus. The conditions noted are these: 5 μM. The text has this:
HepAD38 is a hepatoma cell line (D genotype) that stably integrates the HBV genome, it expresses HBV under conditions that may be regulated with tetracycline. […] The HepAD38 has a DNA level about 10 times that of HepG2.2.15, and thus is a high-copy HBV in vitro replication cell model (for the construction method of this cell model, please refer to: Ladner S K, Otto M J, Barker C S, et al. Inducible expression of human hepatitis B virus (HBV) in stably transfected hepatoblastoma cells: a novel system for screening potential inhibitors of HBV replication. Antimicrob Agents Chemother. 1997; 41(8):1715-1720.).
This experiment was carried out in a 24-well culture plate. […] About 4×10^5HepAD38 cells were plated in each well, 500 μL of medium G containing tetracycline hydrochloride (Tetracycline) was added to each well, Day 0 was set 48 h after the cells were plated, and the medium G containing tetracycline hydrochloride (Tetracycline) was removed at the same time, fresh drug-containing medium F was used for replacement, and then fresh drug-containing medium F was used for replacement every two days until the 8th day, and the levels of HBsAg in the cell supernatant and intracellular HBV DNA were detected on the 8th day. For the method for detection, please refer to Example 1.

In the case of `CC1(C)CCC(C)(C)c2cc(Cn3cccn3)c(/C=C/c3ccc(C(=O)O)cc3)cc21` [Palovarotene], the “positive rate of HBcAg (immunofluorescence)” value in the assay on HBV [1] is “significantly reduce the positive rate”. Besides, the “surface antigen production (HBsAg in cell supernatant)” value with HBV [2] (day 8, p<0.01) is recorded as “significant inhibitory effect”. Further, the “HBV DNA (intracellular)” value in the assay on HBV [2] (day 8, p<0.05) is recorded as “significant inhibitory effect”.
